Values after ≈ are worked out from the molar mass of the structure shown.
What was measured:
Assay type in all cases: functional
Candida albicans [1] = experiment: Antifungal activity against Candida albicans SANK 51486 by 96-well microplate method
Aspergillus = experiment: Antifungal activity against Aspergillus
Aspergillus fumigatus [2] = experiment: Antifungal activity against Aspergillus fumigatus SANK 10569 by 96-well microplate method
Cryptococcus neoformans [3] = experiment: Antifungal activity against Cryptococcus neoformans TIMM 1855 by 96-well microplate method
Aspergillus flavus = experiment: Antifungal activity against Aspergillus flavus SANK 18497 by 96-well microplate method
Aspergillus fumigatus [4] = experiment: Antifungal activity against Aspergillus fumigatus TIMM1728 assessed as inhibition of fungal growth incubated for 20 hrs
Aspergillus fumigatus [5] = experiment: Antifungal activity against Aspergillus fumigatus IFO6344 assessed as inhibition of fungal growth incubated for 20 hrs
Candida albicans [6] = experiment: In vivo antifungal activity against Candida albicans infected in CDF1 mouse treated po 4 hrs after injection twice daily for 2 days measured on day 10; conditions: 48 h, time 2 day
Aspergillus fumigatus [7] = experiment: In vivo antifungal activity against Aspergillus fumigatus infected in CDF1 mouse treated po 4 hrs after injection twice daily for 2 days measured on day 10; conditions: 48 h, time 2 day
Cryptococcus neoformans [8] = experiment: Antifungal activity against Cryptococcus neoformans TIMM1740 assessed as inhibition of fungal growth incubated for 68 hrs
Candida albicans [9] = experiment: Antifungal activity against Candida albicans TIMM1850 assessed as inhibition of fungal growth incubated for 20 hrs
Candida albicans [10] = experiment: Antifungal activity against Candida albicans TIMM1756 assessed as inhibition of fungal growth incubated for 20 hrs
Cryptococcus neoformans [11] = experiment: Antifungal activity against Cryptococcus neoformans TIMM1855 assessed as inhibition of fungal growth incubated for 68 hrs
Cryptococcus neoformans [12] = experiment: Antifungal activity against Cryptococcus neoformans
Aspergillus fumigatus [13] = experiment: Antifungal activity against Aspergillus fumigatus
Candida parapsilosis = experiment: Antifungal activity against Candida parapsilosis; conditions: Lodderomyces parapsilosis
Candida = experiment: Antifungal activity against Candida spp.
Aspergillus sp. = experiment: Antifungal activity against Aspergillus sp
Aspergillus fumigatus [14] = experiment: Antifungal activity against Aspergillus fumigatus in 96-well microplate method
Candida albicans [15] = experiment: In vivo antifungal activity against Candida albicans infected in CDF1 mouse treated po or iv 2 hrs after infection twice daily for 2 days measured on day 10; conditions: 240 h, time 10 day
Pichia kudriavzevii = experiment: Antifungal activity against Candida krusei
Candida tropicalis = experiment: Antifungal activity against Candida tropicalis
Candida albicans [16] = experiment: In vivo antifungal activity against Candida albicans infected in CDF1 mouse treated po or iv immediately after infection measured on day 7; conditions: 168 h, time 7 day
Nakaseomyces glabratus = experiment: Antifungal activity against Candida glabrata
Candida albicans [17] = experiment: Antifungal activity against Candida albicans
Nannizzia gypsea = experiment: Antifungal activity against Microsporum gypseum
Candida albicans [18] = experiment: Antifungal activity against Candida albicans assessed as inhibition of fungal growth incubated for 20 hrs
[19] = Cryptococcus neoformans, read-out: MIC

## C[C@@H](S[C@H]1CO[C@H](/C=C/C=C/c2ccc(C#N)cc2F)OC1)[C@](O)(Cn1cncn1)c1ccc(F)cc1F [EMBECONAZOLE]
Candida albicans [1]
  MIC: ≤ 0.008 µg/mL
Aspergillus
  MIC: < 0.5 µg/mL
Aspergillus fumigatus [2]
  MIC: ≤ 0.008 µg/mL
Cryptococcus neoformans [3]
  MIC: ≤ 0.008 µg/mL
Aspergillus flavus
  MIC: ≤ 0.008 µg/mL

## C[C@@H](N1CCN(c2ccc(-n3cccn3)cc2)C1=O)[C@](O)(Cn1cncn1)c1ccc(F)cc1F
Aspergillus fumigatus [4]
  MIC: 0.25 µg/mL (≈ 0.521 µM)
Aspergillus fumigatus [5]
  MIC: 0.25 µg/mL (≈ 0.521 µM)
Candida albicans [6]
  ED50: 2 mg/kg
Aspergillus fumigatus [7]
  ED50: 4.4 mg/kg
Cryptococcus neoformans [8]
  MIC: 0.016 µg/mL (≈ 0.0334 µM)
Candida albicans [9]
  MIC: ≤ 0.001 µg/mL
Candida albicans [10]
  MIC: ≤ 0.001 µg/mL
Cryptococcus neoformans [11]
  MIC: 0.016 µg/mL (≈ 0.0334 µM)

## CC(C)n1ncn(-c2ccc(N3CCN([C@H](C)[C@](O)(Cn4cncn4)c4ccc(F)cc4F)CC3)cn2)c1=O
Cryptococcus neoformans [12]; [19]
  MIC: 0.5 µg/mL (≈ 0.927 µM)
Aspergillus fumigatus [13]
  MIC: 4 µg/mL (≈ 7.41 µM)
Candida parapsilosis
  MIC: 0.25 µg/mL (≈ 0.463 µM)
Candida
  MIC: 0.25 µg/mL (≈ 0.463 µM)

## C[C@@H](C[C@H]1CO[C@H](/C=C/C=C/c2ccc(C(F)(F)F)cc2)OC1)[C@](O)(Cn1cncn1)c1ccc(F)cc1F
Aspergillus
  MIC: ≤ 0.5 µg/mL

## C[C@@H](N1C(=O)N(c2ccc(-n3cnnn3)cc2)CC1O)[C@](O)(Cn1cncn1)c1ccc(F)cc1F (stereo in doubt; 140b)
Cryptococcus neoformans [12]
  MIC: 8 µg/mL (≈ 16.1 µM)
Aspergillus sp.
  MIC: 32 µg/mL (≈ 64.3 µM)

## C[C@@H](N1C(=O)N(c2ccc(-n3cnnn3)cc2)CC1O)[C@](O)(Cn1cncn1)c1ccc(F)cc1F (stereo in doubt; 140a)
Cryptococcus neoformans [12]; [19]
  MIC: 8 µg/mL (≈ 16.1 µM)
Aspergillus sp.; Aspergillus sp., read-out: MIC
  MIC: 32 µg/mL (≈ 64.3 µM)
Candida
  MIC: ≥ 0.25 µg/mL

## C[C@@H](N1CC(O)N(c2ccc(-n3cnnn3)cc2)C1=O)[C@](O)(Cn1cncn1)c1ccc(F)cc1F (some centres undefined)
Cryptococcus neoformans [12]; [19]
  MIC: > 16 µg/mL
Aspergillus sp.; Aspergillus sp., read-out: MIC
  MIC: > 64 µg/mL
Candida
  MIC: ≥ 4 µg/mL

## C[C@@H](N1Cc2sc(-c3cncnc3)nc2C1=O)[C@](O)(Cn1cncn1)c1ccc(F)cc1F
Aspergillus fumigatus [14]
  MIC80: 4 µg/mL (≈ 8.52 µM)

## CC(C)Cn1ncn(-c2ccc(N3CCN([C@H](C)[C@](O)(Cn4cncn4)c4ccc(F)cc4F)CC3)nc2)c1=O
Cryptococcus neoformans [12]; [19]
  MIC: 0.25 µg/mL (≈ 0.452 µM)
Aspergillus fumigatus [13]
  MIC: 4 µg/mL (≈ 7.23 µM)
Candida parapsilosis
  MIC: 0.25 µg/mL (≈ 0.452 µM)
Candida
  MIC: 0.03 µg/mL (≈ 0.0542 µM)

## C[C@@H](N1Cc2sc(-c3ccc(C#N)cn3)nc2C1=O)[C@](O)(Cn1cncn1)c1ccc(F)cc1F
Aspergillus fumigatus [14]
  MIC80: 4 µg/mL (≈ 8.11 µM)

## C[C@@H](N1CCN(c2ccc(-n3cncn3)cc2)C1=O)[C@](O)(Cn1cncn1)c1ccc(F)cc1F
Aspergillus fumigatus [4]
  MIC: 0.25 µg/mL (≈ 0.52 µM)
Aspergillus fumigatus [5]
  MIC: 0.25 µg/mL (≈ 0.52 µM)
Candida albicans [6]
  ED50: 0.18 mg/kg
Aspergillus fumigatus [7]
  ED50: 4.4 mg/kg
Cryptococcus neoformans [8]
  MIC: 0.016 µg/mL (≈ 0.0333 µM)
Candida albicans [9]
  MIC: ≤ 0.001 µg/mL
Candida albicans [10]
  MIC: ≤ 0.001 µg/mL
Cryptococcus neoformans [11]
  MIC: 0.016 µg/mL (≈ 0.0333 µM)

## C[C@@H](N1CCN(c2ccc(-n3ccnn3)cc2)C1=O)[C@](O)(Cn1cncn1)c1ccc(F)cc1F
Aspergillus fumigatus [4]
  MIC: 0.25 µg/mL (≈ 0.52 µM)
Aspergillus fumigatus [5]
  MIC: 0.25 µg/mL (≈ 0.52 µM)
Candida albicans [6]
  ED50: 0.18 mg/kg
Aspergillus fumigatus [7]
  ED50: 4 mg/kg
Cryptococcus neoformans [8]
  MIC: 0.016 µg/mL (≈ 0.0333 µM)
Candida albicans [9]
  MIC: ≤ 0.001 µg/mL
Candida albicans [10]
  MIC: ≤ 0.001 µg/mL
Cryptococcus neoformans [11]
  MIC: 0.016 µg/mL (≈ 0.0333 µM)

## CCC(C)n1ncn(-c2ccc(N3CCN(c4ccc(OCC5COC(Cn6cncn6)(c6ccc(Cl)cc6Cl)O5)cc4)CC3)cc2)c1=O (centres undefined) [ITRACONAZOLE]
Candida albicans [1]
  MIC: 0.031 µg/mL (≈ 0.0439 µM)
Candida albicans [15]
  ED50: 19 mg/kg
Pichia kudriavzevii
  MIC: ≤ 0.25 µg/mL
Candida tropicalis
  MIC: ≤ 0.25 µg/mL
Candida albicans [16]
  ED50: 5.19 mg/kg
Aspergillus fumigatus [2]
  MIC: 0.031 µg/mL (≈ 0.0439 µM)
Cryptococcus neoformans [3]
  MIC: 0.031 µg/mL (≈ 0.0439 µM)
Aspergillus flavus
  MIC: 0.031 µg/mL (≈ 0.0439 µM)
Candida parapsilosis
  MIC: ≤ 0.25 µg/mL
Nakaseomyces glabratus
  MIC: ≤ 0.25 µg/mL
Candida albicans [17]
  MIC: ≤ 0.25 µg/mL

## OC(Cn1cncn1)(Cn1cncn1)c1ccc(F)cc1F [FLUCONAZOLE]
Candida albicans [1]
  MIC: 0.25 µg/mL (≈ 0.816 µM)
Candida albicans [15]
  ED50: 179 mg/kg
Candida albicans [6]
  ED50: 0.22 mg/kg
Pichia kudriavzevii
  MIC: 0.12 µg/mL (≈ 0.392 µM)
Candida tropicalis
  MIC: 0.12 µg/mL (≈ 0.392 µM)
Candida albicans [16]
  ED50: 0.22 mg/kg
Aspergillus fumigatus [2]
  MIC: 0.25 µg/mL (≈ 0.816 µM)
Aspergillus fumigatus [13]
  MIC: > 64 µg/mL
Cryptococcus neoformans [3]
  MIC: 0.25 µg/mL (≈ 0.816 µM)
Aspergillus flavus
  MIC: 0.25 µg/mL (≈ 0.816 µM)
Candida parapsilosis
  MIC: 0.12 µg/mL (≈ 0.392 µM)
Nakaseomyces glabratus
  MIC: 0.12 µg/mL (≈ 0.392 µM)
Nannizzia gypsea
  MIC: 32 µg/mL (≈ 104 µM)
Candida albicans [17]
  MIC: 0.12 µg/mL (≈ 0.392 µM)

## COc1ccc(-c2nc3c(s2)CN([C@H](C)[C@](O)(Cn2cncn2)c2ccc(F)cc2F)C3=O)cn1
Aspergillus fumigatus [14]
  MIC80: 4 µg/mL (≈ 8.02 µM)

## C[C@@H](N1CCn2nc(-c3ccc(C#N)nc3)nc2C1)[C@](O)(Cn1cncn1)c1ccc(F)cc1F
Aspergillus
  MIC: 1 µg/mL (≈ 2.09 µM)
Cryptococcus neoformans [12]; [19]
  MIC: 0.0078 µg/mL (≈ 0.0163 µM)
Candida
  MIC: 0.0078 µg/mL (≈ 0.0163 µM)

## C[C@@H](N1CCN(c2ccc(-n3cnnn3)cc2)C1=O)[C@](O)(Cn1cncn1)c1ccc(F)cc1F
Aspergillus fumigatus [4]
  MIC: 0.25 µg/mL (≈ 0.519 µM)
Aspergillus fumigatus [5]
  MIC: 0.25 µg/mL (≈ 0.519 µM)
Candida albicans [15]
  ED50: 3.56 mg/kg
Candida albicans [6]
  ED50: 0.18 mg/kg
Aspergillus fumigatus [7]
  ED50: 4 mg/kg
Candida albicans [16]
  ED50: 0.77 mg/kg
Cryptococcus neoformans [8]
  MIC: 0.016 µg/mL (≈ 0.0332 µM)
Candida albicans [9]
  MIC: ≤ 0.001 µg/mL
Candida albicans [18]
  MIC: 0.16 µg/mL (≈ 0.332 µM)
Candida albicans [10]
  MIC: ≤ 0.001 µg/mL
Cryptococcus neoformans [11]
  MIC: 0.016 µg/mL (≈ 0.0332 µM)

## C[C@@H](S[C@H]1CO[C@H](/C=C/C=C/c2ccc(C#N)cc2)OC1)[C@](O)(Cn1cncn1)c1ccc(F)cc1F
Candida albicans [1]
  MIC: ≤ 0.008 µg/mL
Aspergillus fumigatus [2]
  MIC: ≤ 0.008 µg/mL
Cryptococcus neoformans [3]
  MIC: ≤ 0.008 µg/mL
Aspergillus flavus
  MIC: ≤ 0.008 µg/mL

## C[C@@H](N1CCN(c2ccc(-n3cnn(Cc4ccc(OC(F)(F)F)cc4)c3=O)cc2)CC1)[C@](O)(Cn1cncn1)c1ccc(F)cc1F
Aspergillus fumigatus [13]
  MIC: 32 µg/mL (≈ 47.7 µM)

## C[C@H](n1nnnc1CCN1CCN(c2cccc(C(F)(F)F)c2)CC1)[C@](O)(Cn1cncn1)c1ccc(F)cc1F
Pichia kudriavzevii
  MIC: 0.5 µg/mL (≈ 0.866 µM)
Candida tropicalis
  MIC: 0.25 µg/mL (≈ 0.433 µM)
Candida parapsilosis
  MIC: 0.25 µg/mL (≈ 0.433 µM)
Nakaseomyces glabratus
  MIC: 0.5 µg/mL (≈ 0.866 µM)
Candida albicans [17]
  MIC: 0.12 µg/mL (≈ 0.208 µM)

## C[C@@H](N1Cc2nc(-c3ccc(F)cc3)sc2C1=O)[C@](O)(Cn1cncn1)c1ccc(F)cc1F
Cryptococcus neoformans [12]; [19]
  MIC: 0.0312 µg/mL (≈ 0.0643 µM)
Aspergillus sp.; Aspergillus sp., read-out: MIC
  MIC: 4 µg/mL (≈ 8.24 µM)
Candida
  MIC: 0.0156 µg/mL (≈ 0.0321 µM)

## C[C@@H](N1Cc2sc(Br)nc2C1=O)[C@](O)(Cn1cncn1)c1ccc(F)cc1F
Aspergillus fumigatus [14]
  MIC80: 4 µg/mL (≈ 8.51 µM)
Cryptococcus neoformans [12]; [19]
  MIC: 0.125 µg/mL (≈ 0.266 µM)
Aspergillus sp.; Aspergillus sp., read-out: MIC
  MIC: 16 µg/mL (≈ 34 µM)
Candida
  MIC: 0.0625 µg/mL (≈ 0.133 µM)

## C[C@@H](S[C@H]1CO[C@H](/C=C/C=C/c2ccc(C#N)cc2F)OC1)[C@](O)(Cn1cncn1)c1c(F)cccc1F
Candida albicans [1]
  MIC: ≤ 0.008 µg/mL
Aspergillus fumigatus [2]
  MIC: ≤ 0.008 µg/mL
Cryptococcus neoformans [3]
  MIC: ≤ 0.008 µg/mL
Aspergillus flavus
  MIC: ≤ 0.008 µg/mL

## C[C@@H](S[C@H]1CO[C@H](/C=C/C=C/c2ccc(OCC(F)(F)C(F)F)cc2)OC1)[C@](O)(Cn1cncn1)c1ccc(F)cc1F
Candida albicans [1]
  MIC: 0.016 µg/mL (≈ 0.0254 µM)
Aspergillus
  MIC: ≤ 0.5 µg/mL
Aspergillus fumigatus [2]
  MIC: 0.125 µg/mL (≈ 0.199 µM)
Cryptococcus neoformans [3]
  MIC: 0.031 µg/mL (≈ 0.0492 µM)
Aspergillus flavus
  MIC: 0.125 µg/mL (≈ 0.199 µM)
